Patent publication US7833967B2, “Synthetic antimicrobial polypeptides” (priority 2003, dated 2010)

test system: E. coli TOP10; assay: Suicide expression system (SES) growth inhibition; type: cell-based; settings: Table 3; variants of SEQ ID NO:5, re-tested in the Bioscreen C

| Substance | Growth inhibition (%) |
| --- | --- |
| 45 (RRRPRPFPRPFPRPLPRPIPRPFPRPV; Synthetic antimicrobial peptide) [compound 45] | 69% |
| 46 (RRRPRPFPRPFPRPVPRPFPRPFPRPI; Synthetic antimicrobial peptide) [compound 46] | 84% |
| 47 (RRRPRPFPRPFPRPVPRPIPRPFPRPF; Synthetic antimicrobial peptide) [compound 47] | 92% |
| 48 (RRRPRPFPRPFPRPVPRPVPRPVPRPF; Synthetic antimicrobial peptide) [compound 48] | 59% |
| 49 (RRRPRPFPRPLPRPVPRPFPRPVPRPL; Synthetic antimicrobial peptide) [compound 49] | 51% |
| 50 (RRRPRPFPRPLPRPVPRPFPRPVPRPV; Synthetic antimicrobial peptide) [compound 50] | 69% |
| 51 (RRRPRPFPRPVPRPFPRPFPRPFPRPF; Synthetic antimicrobial peptide) [compound 51] | 77% |
| 52 (RRRPRPFPRPVPRPIPRPFPRPVPRPF; Synthetic antimicrobial peptide) [compound 52] | 53% |
| 53 (RRRPRPFPRPVPRPIPRPFPRPVPRPV; Synthetic antimicrobial peptide) [compound 53] | 62% |
| 54 (RRRPRPFPRPVPRPVPRPFPRPIPRPL; Synthetic antimicrobial peptide) [compound 54] | 65% |
| 55 (RRRPRPFPRPVPRPVPRPFPRPLPRPI; Synthetic antimicrobial peptide) [compound 55] | 63% |
| 56 (RRRPRPIPRPFPRPFPRPFPRPFPRPI; Synthetic antimicrobial peptide) [compound 56] | 51% |
| 57 (RRRPRPIPRPFPRPIPRPIPRPFPRPF; Synthetic antimicrobial peptide) [compound 57] | 73% |
| 58 (RRRPRPIPRPFPRPIPRPVPRPFPRPF; Synthetic antimicrobial peptide) [compound 58] | 77% |
| 59 (RRRPRPIPRPFPRPIPRPVPRPFPRPF; Synthetic antimicrobial peptide) [compound 59] | 75% |
| 60 (RRRPRPIPRPFPRPVPRPVPRPFPRPF; Synthetic antimicrobial peptide) [compound 60] | 70% |
| 61 (RRRPRPVPRPFPRPVPRPLPRPFPRPF; Synthetic antimicrobial peptide) [compound 61] | 97% |
| 62 (RRRPRPIPRPIPRPFPRPFPRPFHAQSNCSRTKTHLRRGSE; Synthetic antimicrobial peptide) [compound 62] | 77% |
| 63 (RRRPRPFPRPFPRPVPRPFPRPFPRQSNCSRTKTHLRRGSE; Synthetic antimicrobial peptide) [compound 63] | 80% |

same assay, conditions: Table 4; variants of SEQ ID NO:10, re-tested in the Bioscreen C

| Substance | Growth inhibition (%) |
| --- | --- |
| 64 (RRRPFRPPFRPPFRPPFRPPFRPPFRP; Synthetic antimicrobial peptide) [compound 64] | 82% |
| 65 (RRRPLRPPLRPPVRPPVRPPFRPPFRP; Synthetic antimicrobial peptide) [compound 65] | 89% |
| 66 (RRRPFRPPFRPPFRPPIRPPLRPPIRP; Synthetic antimicrobial peptide) [compound 66] | 76% |
| 67 (RRRPLRPPLRPPIRPPFRPPVRPPFRP; Synthetic antimicrobial peptide) [compound 67] | 80% |
| 68 (RRRPIRPPFRPPFRPPLRPPVRPPFRP; Synthetic antimicrobial peptide) [compound 68] | 78% |
| 69 (RRRPIRPPFRPPFRPPLRPPFRPPIRP; Synthetic antimicrobial peptide) [compound 69] | 75% |
| 70 (RRRPLRPPLRPPFRPPIRPPLRPPFRP; Synthetic antimicrobial peptide) [compound 70] | 76% |
| 71 (RRRPLRPPIRPPFRPPIRPPFRPPFRP; Synthetic antimicrobial peptide) [compound 71] | 82% |
| 72 (RRRPIRPPFRPPFRPPFRPPFRPPFRP; Synthetic antimicrobial peptide) [compound 72] | 49% |
| 73 (RRRPFRPPVRPPFRPPVRPPIRPPVRP; Synthetic antimicrobial peptide) [compound 73] | 65% |
| 74 (RRRPFRPPVRPPFRPPFRPPIRPPIRP; Synthetic antimicrobial peptide) [compound 74] | 76% |
| 75 (RRRPFRPPIRPPVRPPFRPPFRPPFRP; Synthetic antimicrobial peptide) [compound 75] | 79% |
| 76 (RRRPIRPPFRPPIRPPVRPPFRPPIRP; Synthetic antimicrobial peptide) [compound 76] | 86% |
| 77 (RRRPFRPPFRPPIRPPVRPPFRPPFRP; Synthetic antimicrobial peptide) [compound 77] | 72% |
| 78 (RRRPLRPPFRPPFRPPFRPPIRPPVRP; Synthetic antimicrobial peptide) [compound 78] | 83% |
| 79 (RRRPFRPPFRPPFRPPVRPPVRPPFRP; Synthetic antimicrobial peptide) [compound 79] | 82% |
| 80 (RRRPFRPPFRPPIRPPVRPPVRPPFRP; Synthetic antimicrobial peptide) [compound 80] | 81% |
| 81 (RRRPFRPPIRPPFRPPFRPPVRPPIRP; Synthetic antimicrobial peptide) [compound 81] | 80% |
| 82 (RRRPIRPPFRPPVRPPFRPPFRPPFRP; Synthetic antimicrobial peptide) [compound 82] | 71% |
| 83 (RRRPLRPPFRPPIRPPVRPPFRPPVRP; Synthetic antimicrobial peptide) [compound 83] | 72% |
| 84 (RRRPIRPPLRPPIRPPFRPPFRPPLRP; Synthetic antimicrobial peptide) [compound 84] | 80% |

| Substance | Growth inhibition (%) |
| --- | --- |
| 85 (RRRPFRPPIRPPIRPPFRPPFRPPIRP; Synthetic antimicrobial peptide) [compound 85] | 67% |
| 86 (RRRPIRPPFRPPLRPPLRPPVRPPFRP; Synthetic antimicrobial peptide) [compound 86] | 74% |
| 87 (RRRPFRPPFRPPIRPPFRPPVRPPVRP; Synthetic antimicrobial peptide) [compound 87] | 80% |
| 88 (RRRPFRPPLRPPLRPPVRPPVRPPFRP; Synthetic antimicrobial peptide) [compound 88] | 82% |
| 89 (RRRPFRPPFRPPFRPPVRPPVRPPLRP; Synthetic antimicrobial peptide) [compound 89] | 70% |
| 90 (RRRPFRPPIRPPFRPPFRPPVRPPFRP; Synthetic antimicrobial peptide) [compound 90] | 74% |
| 91 (RRRPFRPPVRPPIRPPVRPPFRPPVRP; Synthetic antimicrobial peptide) [compound 91] | 52% |
| 92 (RRRPVRPPIRPPFRPPFRPPFRPPFRP; Synthetic antimicrobial peptide) [compound 92] | 85% |
| 93 (RRRPFRPPFRPPFRPPVRPPLRPPIRP; Synthetic antimicrobial peptide) [compound 93] | 61% |
| 94 (RRRPFRPPVRPPIRPPVRPPFRPPFRP; Synthetic antimicrobial peptide) [compound 94] | 77% |
| 95 (RRRPFRPPLRPPLRPPIRPPVRPPFRP; Synthetic antimicrobial peptide) [compound 95] | 80% |
| 96 (RRRPFRPPIRPPFRPPIRPPLRPPIRP; Synthetic antimicrobial peptide) [compound 96] | 71% |
| 97 (RRRPLRPPFRPPFRPPLRPPFRPPIRP; Synthetic antimicrobial peptide) [compound 97] | 69% |
| 98 (RRRPFRPPFRPPVRPPIRPPLRPPFRP; Synthetic antimicrobial peptide) [compound 98] | 63% |
| 99 (RRRPFRPPIRPPIRPPFRPPIRPPFRP; Synthetic antimicrobial peptide) [compound 99] | 79% |
| 100 (RRRPIRPPFRPPFRPPFRPPFRPPFRP; Synthetic antimicrobial peptide) [compound 100] | 84% |
| 101 (RRRPIRPPFRPPLRPPFRPPIRPPIRP; Synthetic antimicrobial peptide) [compound 101] | 81% |
| 102 (RRRPIRPPFRPPIRPPFRPPLRPPFRP; Synthetic antimicrobial peptide) [compound 102] | 77% |
| 103 (RRRPLRPPIRPPIRPPVRPPFRPPIRP; Synthetic antimicrobial peptide) [compound 103] | 73% |
| 104 (RRRPFRPPFRPPIRPPFRPPFRPPLRP; Synthetic antimicrobial peptide) [compound 104] | 76% |
| 105 (RRRPIRPPLRPPLRPPFRPPFRPPFRP; Synthetic antimicrobial peptide) [compound 105] | 73% |
